Laboratory results as given in PubChem BioAssay AID1259407 (Chemical Carcinogenesis Research Information System (CCRIS), 2018).
Activity calls are given as the source filed them. The rule behind the calls is not given here.

Tested on: CCRIS mutagenicity, Ames/micronucleus/aberration tests
Experiment: CCRIS mutagenicity studies
Conditions: Test System: AMES SALMONELLA TYPHIMURIUM
[1] = Strain/Indicator: TA100, Metabolic Activation: NONE, Method: STANDARD PLATE
[2] = Strain/Indicator: TA100, Metabolic Activation: RAT, LIVER, S-9, AROCLOR 1254, Method: STANDARD PLATE
[3] = Strain/Indicator: TA98, Metabolic Activation: NONE, Method: PREINCUBATION
[4] = Strain/Indicator: TA100, Metabolic Activation: NONE, Method: PREINCUBATION

Measured: mutagenic call

Cc1cc(O)c2c(O)c3c(O)cccc3cc2c1
active: Strain/Indicator: TA1537, Metabolic Activation: RAT, LIVER, S-9, AROCLOR 1254, Method: STANDARD PLATE active; positive
inactive: Strain/Indicator: TA98, Metabolic Activation: NONE, Method: STANDARD PLATE inactive; negative | Strain/Indicator: TA98, Metabolic Activation: RAT, LIVER, S-9, AROCLOR 1254, Method: STANDARD PLATE inactive; negative | [1] inactive; negative | [2] inactive; negative | Strain/Indicator: TA1535, Metabolic Activation: NONE, Method: STANDARD PLATE inactive; negative | Strain/Indicator: TA1535, Metabolic Activation: RAT, LIVER, S-9, AROCLOR 1254, Method: STANDARD PLATE inactive; negative | Strain/Indicator: TA1538, Metabolic Activation: NONE, Method: STANDARD PLATE inactive; negative | Strain/Indicator: TA1538, Metabolic Activation: RAT, LIVER, S-9, AROCLOR 1254, Method: STANDARD PLATE inactive; negative

Nc1ccc(Oc2ccc(N)c(N)c2)cc1
inactive: [3] inactive; negative | [4] inactive; negative
active: Strain/Indicator: TA98, Metabolic Activation: RAT, LIVER, S-9, PCB, Method: PREINCUBATION active; positive | Strain/Indicator: TA100, Metabolic Activation: RAT, LIVER, S-9, PCB, Method: PREINCUBATION active; positive

COC(=O)c1ccc(C=O)cc1
inactive: Strain/Indicator: TA97, Metabolic Activation: HAMSTER, LIVER, S-9, AROCLOR 1254 (10 OR 30%), Method: PREINCUBATION inactive; negative | Strain/Indicator: TA97, Metabolic Activation: NONE, Method: PREINCUBATION inactive; negative | Strain/Indicator: TA97, Metabolic Activation: RAT, LIVER, S-9, AROCLOR 1254 (10 OR 30%), Method: PREINCUBATION inactive; negative | Strain/Indicator: TA98, Metabolic Activation: HAMSTER, LIVER, S-9, AROCLOR 1254 (10 OR 30%), Method: PREINCUBATION inactive; negative | [3] inactive; negative | Strain/Indicator: TA98, Metabolic Activation: RAT, LIVER, S-9, AROCLOR 1254 (10 OR 30%), Method: PREINCUBATION inactive; negative | Strain/Indicator: TA100, Metabolic Activation: HAMSTER, LIVER, S-9, AROCLOR 1254 (10 OR 30%), Method: PREINCUBATION inactive; negative | [4] inactive; negative | Strain/Indicator: TA100, Metabolic Activation: RAT, LIVER, S-9, AROCLOR 1254 (10 OR 30%), Method: PREINCUBATION inactive; negative | Strain/Indicator: TA1535, Metabolic Activation: HAMSTER, LIVER, S-9, AROCLOR 1254 (10 OR 30%), Method: PREINCUBATION inactive; negative | Strain/Indicator: TA1535, Metabolic Activation: NONE, Method: PREINCUBATION inactive; negative | Strain/Indicator: TA1535, Metabolic Activation: RAT, LIVER, S-9, AROCLOR 1254 (10 OR 30%), Method: PREINCUBATION inactive; negative

O=c1cc[nH]c2ccccc12
inactive: [1] inactive; negative | Strain/Indicator: TA100, Metabolic Activation: RAT, LIVER, S-9, AROCLOR 1254 (10% OR 20%), Method: STANDARD PLATE inactive; negative

OC1C2OC2c2cccc3c2C1(O)c1ccccc1-3 (stereo not given)
inactive: Strain/Indicator: TM677, Metabolic Activation: NONE, Method: PREINCUBATION inactive; negative | Strain/Indicator: TM677, Metabolic Activation: RAT, LIVER, POSTMITOCHONDRIAL SUPERNATANT, AROCLOR 1254, Method: PREINCUBATION inactive; negative

Fc1cccc2cc3c(cc12)-c1cccc2cccc-3c12
active: [2] active; positive
